Measurements reported in patent publication US20140051679A1, “KINASE INHIBITORS AND METHOD OF TREATING CANCER WITH SAME” (UNIVERISTY HEALTH NETWORKS, priority 2011, published 2014).

What was measured:
Assay type in all cases: biochemical
human PLK4 = target: T1, human PLK4 (Homo sapiens, UniProt O00444); test: PLK4 inhibition assay (indirect ELISA); settings: GST-PLK4 4 nM, 15 μM ATP; read-out: IC50 Ranges PLK4
T1 construct: amino terminal GST fusion of residues 1-391 of human PLK4; made in house; host or cells: E. coli
T1 sequence (O00444 1-391): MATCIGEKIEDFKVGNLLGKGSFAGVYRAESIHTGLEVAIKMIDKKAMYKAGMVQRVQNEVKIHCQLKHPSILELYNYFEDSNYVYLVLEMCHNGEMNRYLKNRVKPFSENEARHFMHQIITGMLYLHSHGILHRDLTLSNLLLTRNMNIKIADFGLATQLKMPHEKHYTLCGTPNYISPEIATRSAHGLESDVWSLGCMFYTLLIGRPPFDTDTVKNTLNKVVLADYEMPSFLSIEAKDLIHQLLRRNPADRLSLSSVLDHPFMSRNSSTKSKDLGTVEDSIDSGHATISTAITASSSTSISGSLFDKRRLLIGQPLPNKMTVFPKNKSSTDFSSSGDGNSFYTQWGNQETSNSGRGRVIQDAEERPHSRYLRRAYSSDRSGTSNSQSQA
Method: Active PLK4 was purified from an E. coli expression system as an amino terminal GST fusion of residues 1-391 of human PLK4. The protein was purified from clarified cell extracts after induction at 15° C. overnight using glutathione sepharose, gel permeation chromatography, and ion exchange (Resource Q). The resulting protein was dephosphorylated with lambda phosphatase (NEB cat#P0753), and resolved from the phosphatase using gluthione sepharose. The dephosphorylated GST-PLK4 was stored in aliquots at −80° C. until use.
PLK4 activity was measured using an indirect ELISA detection system. GST-PLK4 (4 nM) was incubated in the presence of 15 μM ATP (Sigma cat#A7699), 50 mM HEPES-Na^2+ pH 7.5, 10 mM MgCl2, 0.01% Brij 35 (Sigma cat#03-3170), in a 96 well microtitre plate pre-coated with MBP (Millipore cat#30-011). The reaction was allowed to proceed for 30 minutes, followed by 5 washes of the plate with Wash Buffer (phosphate buffered saline supplemented with 0.2% Tween 20), and incubation for 30 minutes with a 1:3000 dilution of primary antibody (Cell Signaling cat#9381). The plate was washed 5 times with Wash Buffer, incubated for 30 minutes in the presence of secondary antibody coupled to horse radish peroxidase (BioRad cat#1721019, 1:3000 concentration), washed an additional 5 times with Wash Buffer, and incubated in the presence of TMB substrate (Sigma cat#T0440). The colourimetric reaction was allowed to continue for 5 minutes, followed by addition of stop solution (0.5 N sulphuric acid), and quantified by detection at 450 nm with either a monochromatic or filter based plate reader (Molecular Devices M5 or Beckman DTX880, respectively).
Compound inhibition was determined at either a fixed concentration (10 μM) or at a variable inhibitor concentration (typically 0.5 μM to 0.001 μM in a 10 point dose response titration). Compounds were pre-incubated in the presence of enzyme for 15 minutes prior to addition of ATP and the activity remaining quantified using the above described activity assay. The % Inhibition of a compound was determined using the following formula; % Inhibition=100×(1-(experimental value−background value)/(high activity control−background value)). The IC50 value was determined using a non-linear 4 point logistic curve fit (XLfit4, IDBS) with the formula; (A+(B/(1+((x/C)̂D)))), where A=background value, B=range, C=inflection point, D=curve fit parameter.

Aurora B = target: T2, Aurora B (Homo sapiens, UniProt Q96GD4); test: Aurora B inhibition assay (Z-Lyte); settings: 28 nM Aurora B, 128 μM ATP; read-out: IC50 Ranges Aurora B
T2 construct: purchased Invitrogen PV3970
Method: Aurora B inhibition was determined using the Z-Lyte assay kit from Invitrogen. The assay was performed using the recommended manufacturer's instructions with 128 μM ATP and 28 nM Aurora B (Invitrogen cat #PV3970). The % inhibition values were determined according to the manufacturer's directions and IC50 values were obtained using a non-linear 4 point logistic curve fit (XLfit4, IDBS)

human TTK = target: T3, human TTK (Homo sapiens, UniProt P33981); test: TTK inhibition assay (indirect ELISA); settings: GST-TTK 0.68 nM, 16 μM ATP; read-out: IC50 Ranges TTK
T3 construct: amino terminal GST fusion of full length human TTK; purchased Invitrogen
T3 sequence (P33981 1-857): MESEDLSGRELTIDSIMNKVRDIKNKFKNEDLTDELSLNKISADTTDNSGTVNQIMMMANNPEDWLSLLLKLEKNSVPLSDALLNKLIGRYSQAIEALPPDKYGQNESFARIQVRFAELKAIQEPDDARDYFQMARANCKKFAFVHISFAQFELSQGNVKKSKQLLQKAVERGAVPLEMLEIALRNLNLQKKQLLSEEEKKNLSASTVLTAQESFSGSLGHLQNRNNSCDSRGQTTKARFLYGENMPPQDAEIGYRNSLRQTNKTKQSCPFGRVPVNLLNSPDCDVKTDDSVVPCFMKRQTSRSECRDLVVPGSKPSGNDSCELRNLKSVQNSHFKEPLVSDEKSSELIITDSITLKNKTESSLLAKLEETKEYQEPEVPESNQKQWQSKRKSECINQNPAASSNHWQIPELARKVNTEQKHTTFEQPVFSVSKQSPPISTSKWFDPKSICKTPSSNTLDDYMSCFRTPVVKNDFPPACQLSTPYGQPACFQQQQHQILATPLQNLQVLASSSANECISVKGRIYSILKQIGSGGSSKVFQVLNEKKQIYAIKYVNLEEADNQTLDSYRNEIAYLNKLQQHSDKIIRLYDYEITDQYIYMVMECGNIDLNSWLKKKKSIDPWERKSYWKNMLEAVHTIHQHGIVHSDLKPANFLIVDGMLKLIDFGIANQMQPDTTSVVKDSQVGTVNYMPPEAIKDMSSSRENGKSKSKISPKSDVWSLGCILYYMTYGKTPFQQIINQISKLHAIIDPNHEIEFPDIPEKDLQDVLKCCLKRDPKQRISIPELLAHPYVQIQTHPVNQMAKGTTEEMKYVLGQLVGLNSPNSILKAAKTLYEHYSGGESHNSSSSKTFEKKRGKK

T2 sequence (Q96GD4 whole entry): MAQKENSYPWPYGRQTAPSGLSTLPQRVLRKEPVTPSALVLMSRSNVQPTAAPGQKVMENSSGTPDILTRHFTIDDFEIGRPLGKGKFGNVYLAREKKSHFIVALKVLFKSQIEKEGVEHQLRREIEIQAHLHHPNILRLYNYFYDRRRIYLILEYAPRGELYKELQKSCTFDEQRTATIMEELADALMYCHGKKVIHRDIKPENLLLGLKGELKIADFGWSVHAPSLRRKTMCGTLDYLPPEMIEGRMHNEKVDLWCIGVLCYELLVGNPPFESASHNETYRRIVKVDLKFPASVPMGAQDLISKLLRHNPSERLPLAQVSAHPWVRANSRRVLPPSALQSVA

| IC50 (human PLK4) [µM] | IC50 (Aurora B) [µM] | IC50 (human TTK) [µM] | Structure (SMILES) |
| --- | --- | --- | --- |
| ≤ 5 | – | ≤ 5 | O=C(N[C@@H](c1ncccc1Cl)C1CC1)c1ccc2[nH]nc(-c3ccc(OC4CCN(C5COC5)CC4)cc3)c2c1 [Example A215, (R)—N-((3-chloropyridin-2-yl)(cyclopropyl)methyl)-3-(4-((1-(oxetan-3-yl)piperidin-4-yl)oxy)phenyl)-1H-indazole-5-carboxamide] |
| ≤ 5 | ≤ 5 | ≤ 5 | O=CN1CCC(Oc2ccc(-c3n[nH]c4ccc(C(=O)N[C@@H](c5ncccc5Cl)C5CC5)cc34)cc2)CC1 [Example A211, (R)—N-((3-chloropyridin-2-yl)(cyclopropyl)methyl)-3-(4-((1-formylpiperidin-4-yl)oxy)phenyl)-1H-indazole-5-carboxamide] |
| ≤ 5 | ≤ 5 | ≤ 5 | CN1CCC(Oc2ccc(-c3n[nH]c4ccc(C(=O)NC(c5ccccn5)C5CCC5)cc34)cc2)CC1 (centres unmarked) [Example A210] |
| ≤ 5 | ≤ 5 | – | CN(C)CC(=O)N1CCC(Oc2ccc(-c3n[nH]c4ccc(C(=O)NC(c5ccccc5)C5CC5)cc34)cc2)CC1 (centres unmarked) [Example A130, N-(cyclopropyl(phenyl)methyl)-3-(4-((1-(2-(dimethylamino)acetyl)piperidin-4-yl)oxy)phenyl)-1H-indazole-5-carboxamide] |
| ≤ 5 | ≤ 5 | – | CC[C@@H](NC(=O)c1ccc2[nH]nc(-c3ccc(OC4CCN(C)CC4)cc3)c2c1)c1ccccc1Cl [Example A131, (R)—N-(1-(2-chlorophenyl)propyl)-3-(4-((1-methylpiperidin-4-yl)oxy)phenyl)-1H-indazole-5-carboxamide] |
| ≤ 5 | ≤ 5 | ≤ 5 | CN1CCC(Oc2ccc(-c3n[nH]c4ccc(C(=O)NCC(c5ccccc5)C5CCCC5)cc34)cc2)CC1 (centres unmarked) [Example A207, N-(2-cyclopentyl-2-phenylethyl)-3-(4-((1-methylpiperidin-4-yl)oxy)phenyl)-1H-indazole-5-carboxamide] |
| ≤ 5 | ≤ 5 | – | CN1CCC(Oc2ccc(-c3n[nH]c4ccc(NC(=O)C(c5ccccn5)C5CCCC5)cc34)cc2)CC1 (centres unmarked) [Example A179, 2-cyclopentyl-N-(3-(4-((1-methylpiperidin-4-yl)oxy)phenyl)-1H-indazol-5-yl)-2-(pyridin-2-yl)acetamide] |
| ≤ 5 | ≤ 5 | – | CN1CCC(Oc2ccc(-c3n[nH]c4ccc(C(=O)NC(c5ccccn5)C5CCCC5)cc34)cc2)CC1 (centres unmarked) [Example A208, N-(cyclopentyl(pyridin-2-yl)methyl)-3-(4-((1-methylpiperidin-4-yl)oxy)phenyl)-1H-indazole-5-carboxamide] |
| ≤ 5 | ≤ 5 | ≤ 5 | CN1CCC(Oc2ccc(-c3n[nH]c4ccc(C(=O)N[C@H](c5ccccn5)C5CC5)cc34)cc2)CC1 [Example A214, (S)—N-(cyclopropyl(pyridin-2-yl)methyl)-3-(4-((1-methylpiperidin-4-yl)oxy)phenyl)-1H-indazole-5-carboxamide] |
| ≤ 5 | – | ≤ 5 | O=C(N[C@H](c1ncccc1Cl)C1CC1)c1ccc2[nH]nc(-c3ccc(OC4CCN(C5COC5)CC4)cc3)c2c1 [Example A216, (S)—N-((3-chloropyridin-2-yl)(cyclopropyl)methyl)-3-(4-((1-(oxetan-3-yl)piperidin-4-yl)oxy)phenyl)-1H-indazole-5-carboxamide] |

The remaining lines, values behind:

| Structure (SMILES) | IC50 (human PLK4) [µM] | IC50 (Aurora B) [µM] | IC50 (human TTK) [µM] |
| --- | --- | --- | --- |
| O=C(NC(c1ccsc1)C1CC1)c1ccc2[nH]nc(-c3ccc(N4CCC(O)CC4)cc3)c2c1 (centres unmarked) [Example A101, N-(cyclopropyl(thiophen-3-yl)methyl)-3-(4-(4-hydroxypiperidin-1-yl)phenyl)-1H-indazole-5-carboxamide] | ≤ 5 | ≤ 5 | – |
| CN1[C@@H]2CC[C@H]1C[C@@H](Oc1ccc(-c3n[nH]c4ccc(C(=O)N[C@H](c5ccccn5)C5CC5)cc34)cc1)C2 [Example A213, N—((S)-cyclopropyl(pyridin-2-yl)methyl)-3-(4-(((1R,3r,5S)-8-methyl-8-azabicyclo[3.2.1]octan-3-yl)oxy)phenyl)-1H-indazole-5-carboxamide] | ≤ 5 | ≤ 5 | ≤ 5 |
| CN1CCN(c2ccc(-c3n[nH]c4ccc(NC(=O)C(c5ccsc5)N5CCCC5)cc34)cc2)C(=O)C1 (centres unmarked) [Example A94, N-(3-(4-(4-Methyl-2-oxopiperazin-1-yl)phenyl)-1H-indazol-5-yl)-2-(pyrrolidin-1-yl)-2-(thiophen-3-yl)acetamide] | ≤ 5 | – | ≤ 5 |
| CN1CCC(Oc2ccc(-c3n[nH]c4ccc(C(=O)N[C@H](c5ccccc5)C5CC5)cc34)cc2)CC1 [Example A42, (S)—N-(cyclopropyl(phenyl)methyl)-3-(4-((1-methylpiperidin-4-yl)oxy)phenyl)-1H-indazole-5-carboxamide] | ≤ 5 | ≤ 5 | – |
| O=C(Nc1ccc2[nH]nc(-c3ccc(N4CCC(O)CC4)cc3)c2c1)C(c1ccsc1)N1CCCC1 (centres unmarked) [Example A9, N-(3-(4-(4-hydroxypiperidin-1-yl)phenyl)-1H-indazol-5-yl)-2-(pyrrolidin-1-yl)-2-(thiophen-3-yl)acetamide] | ≤ 5 | ≤ 5 | – |
| CN1CCC(Oc2ccc(-c3n[nH]c4ccc(C(=O)NC(c5ccccc5)C5CC5)cc34)cc2)CC1 (centres unmarked) [Example A24, N-(cyclopropyl(phenyl)methyl)-3-(4-((1-methylpiperidin-4-yl)oxy)phenyl)-1H-indazole-5-carboxamide] | ≤ 5 | ≤ 5 | – |
| CN1CCC(Oc2ccc(-c3n[nH]c4ccc(NC(=O)C(c5ccsc5)N5CCCC5)cc34)cc2)CC1 (centres unmarked) [Example A7, N-(3-(4-((1-methylpiperidin-4-yl)oxy)phenyl)-1H-indazol-5-yl)-2-(pyrrolidin-1-yl)-2-(thiophen-3-yl)acetamide] | ≤ 5 | ≤ 5 | – |
| CCN(C(=O)Nc1ccc2[nH]nc(-c3ccc(N4CCOCC4)cc3)c2c1)c1ccccc1 [Example A72, 1-ethyl-3-(3-(4-morpholinophenyl)-1H-indazol-5-yl)-1-phenylurea] | ≤ 5 | – | ≤ 5 |
